Laboratory results: ChEMBL document CHEMBL1201862, “PubChem BioAssay data set” (2004)
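Test compounds were applied to cells in 96-well plates for 48 hours at 5 doses. Here, GI50 denotes the concentration required for 50% inhibition of growth.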 Activity calls are given as the source filed them. Cut-off read from the data, not from the text of the source: active = GI50 up to about 1.1 µM and inactive = higher.

How the values were obtained:
Test in all cases: inhibition of tumour cell growth, NCI panel, 48 h
[1] = test system: K562
[2] = test system: HT-29
[3] = test system: MDA-MB-231
[4] = test system: NCI-H460
[5] = test system: NCI-H226
[6] = test system: HCT-116
[7] = test system: NCI/ADR-RES
[8] = test system: MDA-MB-435
[9] = test system: IGROV-1
[10] = test system: U-251
[11] = test system: SK-MEL-5
[12] = test system: T47D
[13] = test system: SK-MEL-28
[14] = test system: 786-0
[15] = test system: MOLT-4
[16] = test system: A498
[17] = test system: CCRF-CEM
[18] = test system: Malme-3M
[19] = test system: TK-10

Row | Compound | GI50 [1] | GI50 [2] | GI50 [3] | GI50 [4] | GI50 [5] | GI50 [6] | GI50 [7] | GI50 [8] | GI50 [9] | GI50 [10] | GI50 [11] | GI50 [12] | GI50 [13] | GI50 [14] | GI50 [15] | GI50 [16] | GI50 [17] | GI50 [18] | GI50 [19]
1 | Cc1cc(OP2(=O)NCc3ccncc3O2)ccc1Cl (stereo not given) | > 100 µM (inactive) | > 100 µM (inactive) | > 100 µM (inactive) | > 100 µM (inactive) | > 100 µM (inactive) | > 100 µM (inactive) | > 100 µM (inactive) | > 100 µM (inactive) | > 100 µM (inactive) | > 100 µM (inactive) | > 100 µM (inactive) | > 100 µM (inactive) | > 100 µM (inactive) | > 100 µM (inactive) | > 100 µM (inactive) | > 100 µM (inactive) | 44.5 µM (inactive) |  | 
2 | O=C(Nc1ccc2[nH]c(C(=O)N3CC(CCl)c4ccc([N+](=O)[O-])cc43)cc2c1)c1cc2ccccc2o1 (stereo not given) |  | > 1100 µM (inactive) | > 1100 µM (inactive) | 98.4 µM (inactive) | > 1100 µM (inactive) | > 1100 µM (inactive) | > 1100 µM (inactive) | > 1100 µM (inactive) | > 1100 µM (inactive) | > 1100 µM (inactive) | > 1100 µM (inactive) | > 1100 µM (inactive) | > 1100 µM (inactive) | > 1100 µM (inactive) | > 1100 µM (inactive) | > 1100 µM (inactive) | > 1100 µM (inactive) | > 1100 µM (inactive) | 
3 | O=c1cc(N2CCOCC2)[nH]c(=O)n1-c1cccc(Cl)c1 | > 100 µM (inactive) | > 100 µM (inactive) | > 100 µM (inactive) | > 100 µM (inactive) | > 100 µM (inactive) | > 100 µM (inactive) | > 100 µM (inactive) | > 100 µM (inactive) | > 100 µM (inactive) | > 100 µM (inactive) |  | > 100 µM (inactive) | > 100 µM (inactive) | > 100 µM (inactive) | > 100 µM (inactive) | 32.4 µM (inactive) | > 100 µM (inactive) | > 100 µM (inactive) | > 100 µM (inactive)
4 | CN1CCN(C2=C(Cl)C3(OCCS3)C(F)(F)C2(F)F)CC1 (stereo not given) | 29.8 µM (inactive) | 39.4 µM (inactive) | 82 µM (inactive) |  | > 100 µM (inactive) | > 100 µM (inactive) | 79.6 µM (inactive) | > 100 µM (inactive) | > 100 µM (inactive) | 39.8 µM (inactive) | 16.6 µM (inactive) | 9.35 µM (inactive) |  | > 100 µM (inactive) | 45.4 µM (inactive) | > 100 µM (inactive) | > 100 µM (inactive) | > 100 µM (inactive) | > 100 µM (inactive)
5 | O=CCOCc1cc2c(cc1Br)OCO2 | 44.6 µM (inactive) | 19 µM (inactive) | 19.7 µM (inactive) | > 100 µM (inactive) |  | 21.6 µM (inactive) | 21 µM (inactive) | > 100 µM (inactive) | 32.8 µM (inactive) | 31 µM (inactive) | 19.3 µM (inactive) | 21 µM (inactive) | 37.9 µM (inactive) | 17.3 µM (inactive) | 30.1 µM (inactive) | > 100 µM (inactive) | 9.93 µM (inactive) |  | 52.1 µM (inactive)
6 | CC12CCC(C(Nc3cc(C(F)(F)F)cc(C(F)(F)F)c3)C1=O)C2(C)C (stereo not given) | > 100 µM (inactive) | > 100 µM (inactive) | > 100 µM (inactive) | > 100 µM (inactive) | > 100 µM (inactive) | > 100 µM (inactive) | > 100 µM (inactive) | > 100 µM (inactive) | > 100 µM (inactive) | > 100 µM (inactive) | > 100 µM (inactive) | > 100 µM (inactive) | > 100 µM (inactive) | > 100 µM (inactive) | > 100 µM (inactive) | > 100 µM (inactive) |  | > 100 µM (inactive) | > 100 µM (inactive)
7 | CC(C)(Oc1ccccc1)C(=O)Sc1c(-c2ccccc2)c(=O)n(-c2ccccc2)c(=S)n1-c1ccccc1 | 41.4 µM (inactive) | 50.9 µM (inactive) | 28.8 µM (inactive) | 27.3 µM (inactive) | 31.1 µM (inactive) | 50.1 µM (inactive) | 62.7 µM (inactive) | 20.6 µM (inactive) | 22.6 µM (inactive) | 21.6 µM (inactive) |  | 64.3 µM (inactive) | 49.7 µM (inactive) | 31.2 µM (inactive) | 36.4 µM (inactive) | 80.9 µM (inactive) | 25.9 µM (inactive) | 95.5 µM (inactive) | 92.5 µM (inactive)
8 | CN(C)CCO/N=C1/C=C2CC[C@H]3[C@@H]4CC[C@H](O)[C@@]4(C)CC[C@@H]3[C@@]2(C)CC1 | 6.22 µM (inactive) | 1.05 µM (active) | 12.9 µM (inactive) | 7.11 µM (inactive) | 1.23 µM (inactive) | 10.5 µM (inactive) | 3.18 µM (inactive) | 3.49 µM (inactive) | 6.95 µM (inactive) | 10.1 µM (inactive) | 8.71 µM (inactive) | 23.9 µM (inactive) | 13.8 µM (inactive) | 8.85 µM (inactive) | 8.55 µM (inactive) | 15.7 µM (inactive) | 6.89 µM (inactive) |  | 11.1 µM (inactive)
